# Experimental data taken from patent US12318373B2, “Methods of treating gastrointestinal stromal tumors” (Deciphera Pharmaceuticals, LLC, priority 2019, dated 2025).
# Legend:
# [1] = tested on: patients with advanced GIST; assay: Example 2: patient reported outcomes (EQ-5D-5L VAS, EORTC QLQ-C30); assay type: in vivo, human; conditions: 150 mg QD
# Protocol: Patient reported outcomes were assessed by EQ-5D-5L, which provides a visual analogue scale (VAS), and EORTC QLQ-C30, which provides physical function and role function scales. The EQ-5D-5L VAS (or EQ-VAS) records the respondent's overall current health on a vertical visual analogue scale and provides a quantitative measure of the patient's perception of overall health. These patient outcomes were reported across 28-day cycles of receiving 150 mg QD ripretinib or placebo.
# The EORTC QLQ-C30 is an assessment of function and symptoms of therapy by cancer patient, and is not specific to any cancer. The EORTC QLQ-C30 is a 30-question plus one global health status, including 5 functional scales, 3 symptom scales and a global health status.
# [2] = tested on: advanced GIST; assay: Example 2: randomized, double-blind, placebo-controlled study, efficacy (PFS, ORR, OS); assay type: in vivo, human; conditions: for PFS by BICR: events, % / PFS by BICR: number of events: N = 85
# Description: Example 2. A Randomized, Double-blind, Placebo-controlled, International, Multicenter Study to Evaluate the Safety, Tolerability, and Efficacy of Ripretinib Compared to Placebo in Patients with Advanced GIST Whose Previous Therapies Have Included Imatinib, Sunitinib, and Regorafenib
# This study was a randomized (2:1), double-blind, placebo-controlled, international, multicenter study to evaluate the safety, tolerability, and efficacy of ripretinib compared to placebo in 129 patients with advanced GIST whose previous therapies have included at least imatinib, sunitinib, and regorafenib. Patients were randomized 2:1 to either 150 mg of ripretinib or placebo once daily. The primary efficacy endpoint is progression-free survival (PFS) as determined by independent radiologic review using modified Response Evaluation Criteria in Solid Tumors (RECIST). Secondary endpoints as determined by independent radiologic review using modified RECIST include Objective Response Rate (ORR), Time to Tumor Progression (TTP) and Overall Survival (OS).
# Patients whose disease progressed during the double blind phase of the study were escalated to 150 mg BID ripretinib, continued at the 150 mg QD dose, or discontinued in an open label-phase of the study.
# [3] = 150 mg once daily, BICR, modified RECIST 1.1
structure (smiles),measurement,setting,value
CCn1c(=O)c(-c2cc(NC(=O)Nc3ccccc3)c(F)cc2Br)cc2cnc(NC)cc21 [ripretinib],"EORTC QLQ-C30 role function score, average improvement from baseline to C2D1",[1]; 70 patients,3.5
same,"EQ-VAS score, average improvement from baseline to Cycle 2, Day 1 (C2D1)",[1]; 70 patients,3.7
same,"EORTC QLQ-C30 physical function score, average improvement from baseline to C2D1",[1]; 71 patients,1.6
same,EORTC QLQ-C30 Question C29 (overall health) score improvement,"[1]; scale 1 to 7, 70 patients",0.20
same,EORTC QLQ-C30 Question C30 (overall quality of life) score improvement,"[1]; scale 1 to 7, 70 patients",0.28
same,"Benefit over placebo (PFS, OS), primary Exon 11 and Exon 9 mutation","[2]; 150 mg QD, FIGS. 17A, 17B",derive a benefit
same,OS hazard ratio (HR) vs placebo,[2]; 150 mg once daily,0.36
same,OS rate at 12 months,[2]; 150 mg once daily,65.4%
same,PFS hazard ratio (HR) compared to placebo,[2]; 150 mg once daily,0.15
same,PFS rate at 6 months,[2]; 150 mg once daily,51%
same,"Patients with PD, %",[2]; 150 mg once daily,18.8%
same,"Patients with PD, number",[2]; 150 mg once daily,16
same,"Patients with stable disease (SD) for 12 weeks, number",[2]; 150 mg once daily,40
same,Reduction of risk of disease progression or death compared to placebo,[2]; 150 mg once daily,85%
same,Median PFS,[2]; [3],6.3 months
same,Objective response rate (ORR),[2]; [3],9.4%
same,Median PFS,"[2]; 150 mg once daily, initial ripretinib arm",27.6 weeks
same,Median OS,"[2]; 150 mg once daily, patients initially randomized to ripretinib",15.1 months
same,"PFS compared to placebo in subgroups with Exon 9, 11, 13 or 17 KIT mutations",[2]; FIG. 26A-D,PFS benefit in all assessed patient subgroups
same,"PFS by BICR: events, %",[2]; double-blind cut,(60) %
same,PFS by BICR: number of events,[2]; double-blind cut,51
same,"PFS by BICR: events, %",[2]; open-label cut,(75) %
same,PFS by BICR: number of events,[2]; open-label cut,64
same,Median OS,[2]; double-blind cut,15 months
same,Median PFS by BICR,[2]; double-blind cut,6.3 months
same,OS hazard ratio,[2]; double-blind cut,0.36
same,Overall Response Rate by BICR,[2]; double-blind cut,9%
same,"Overall Survival: deaths, %",[2]; double-blind cut,(31) %
same,Overall Survival: number of deaths,[2]; double-blind cut,26
same,"PFS by BICR: deaths, %",[2]; double-blind cut,(6) %
same,"PFS by BICR: deaths, number",[2]; double-blind cut,5
same,"PFS by BICR: progressive disease, %",[2]; double-blind cut,(54) %
same,"PFS by BICR: progressive disease, number",[2]; double-blind cut,46
same,PFS hazard ratio,[2]; double-blind cut,0.15
same,Median OS,[2]; open-label cut,Not Reached
same,Median PFS by BICR,[2]; open-label cut,6.3 months
same,OS hazard ratio,[2]; open-label cut,0.43
same,Overall Response Rate by BICR,[2]; open-label cut,12%
same,"Overall Survival: deaths, %",[2]; open-label cut,(45) %
same,Overall Survival: number of deaths,[2]; open-label cut,38
same,"PFS by BICR: deaths, %",[2]; open-label cut,(7) %
same,"PFS by BICR: deaths, number",[2]; open-label cut,6
same,"PFS by BICR: progressive disease, %",[2]; open-label cut,(68) %
same,"PFS by BICR: progressive disease, number",[2]; open-label cut,58
same,PFS hazard ratio,[2]; open-label cut,0.16
same,Median PFS,[2]; patients crossed over from placebo to ripretinib,20.0 weeks
same,Median OS,[2]; patients who crossed over from placebo to ripretinib,11.6 months
